Data published in patent US9044013B2, “Glyoxime derivative and pest control agent” (KUMIAI CHEMICAL INDUSTRY CO., LTD., priority 2011, dated 2015).

What follows are compounds tested on Nilaparvata lugens Stál (brown rice planthopper) (assay: Insecticidal action test for Nilaparvata lugens Stál (brown rice planthopper) (immersion test)). Settings: 144 h, 500 ppm active ingredient (wettable powder diluted with water), sprouting unhulled rice immersed, 10 2-age larvae, 25° C., after 6 days, no repetition, read-out: insect mortality.
Type: in vivo
Method: Insecticidal action test for Nilaparvata lugens Stál (Brown Rice Planthopper) (Immersion Test)
A wettable powder prepared based on Formulation Example 2 was diluted with water so that the concentration of active ingredient became 500 ppm. In the diluted liquid was immersed sprouting unhulled rice. The immersed rice was placed in a plastic cup of 60 ml. Into the plastic cup were released 10 2-age larvae of Nilaparvata lugens Stál (brown rice planthopper). The cup was covered with a cap and placed in a thermostat of 25° C. After 6 days, the number of living insects was counted and the mortality of insect was calculated using the calculation formula of Mathematical Expression 1. This test was conducted with no repetition. Insect mortality(%)=[1−(number of living insects)/(number of tested insects)]×100 [Mathematical Expression 1]
The compound Nos. of the compounds which gave an insect mortality of 90% or higher in the above test, are shown below.

SMILES | mortality at 500 ppm
CC(C)ON=C(N)C(C#N)=NOC(C)C [1-096, 3-amino-2,3-bis(isopropoxyimino)propionitrile] | ≥ 90%
CCCON=C(N)C(C#N)=NOCCC [1-072, 3-Amino-2,3-Bis(Propoxyimino)Propionitrile] | ≥ 90%
CC(C)ON=C(C#N)C(N)=NO [1-004, 3-amino-3-hydroxyimino-2-isopropoxyiminopropionitrile] | ≥ 90%
CCCON=C(N)C(C#N)=NOC(C)C [1-073, 3-amino-2-isopropoxyimino-3-propoxyiminopropionitrile] | ≥ 90%
